Measured values published in patent publication US5496546A, “Compositions and methods of application of reactive antiviral polyadenylic acid derivatives” (priority 1994, dated 1996).

Experiments:
HIV RT = molecular target: T1, HIV RT (Human immunodeficiency virus type 1 group M subtype B, UniProt P04585); assay: Inhibition of viral reverse transcriptase in solution, HIV RT; assay type: biochemical
T1 construct: Reverse transcriptase samples from HIV (HIV RT)
Description: Reverse transcriptase samples from HIV (HIV RT) and from Moloney murine leukemia virus (MLV RT) and from avian myeloblastosis virus (AMV RT) were separately incubated with FDNP-poly[A] at 25° C. in a Tris-HCl buffer (0.1M, pH 8.2) containing 1 mM MgCl2 and 125 mM KCl and measured for RT activity. In each experiment, the selected enzyme was incubated for 10 minutes at 25° C. in an incubation mixture containing the potassium salt of the inhibitor at a given concentration. After ten minutes the incubated mixture was rapidly injected into an assay solution and further incubated for 10 min at 37° C., then precipitated with trichloroacetic acid, washed, and assayed for the radioactive polynucleotide formed by scintillation counting. The assay mixture contained 125 mM Tris-HCl (pH 8.2), 1 mM MgCl2, 125 mM KCl, 250 μM [^3 H]dTTP as the substrate and 23 nM Poly[A]-[dT],12 as the template.
Similar results were obtained with DNP-poly[A].

murine leukemia RT = murine leukemia RT (Moloney murine leukemia virus, UniProt P03355); details: cited from earlier work
HIV-1 RT (wild type) = molecular target: T2, HIV-1 RT (wild type) (Human immunodeficiency virus type 1 group M subtype B, UniProt P04585); assay: Inhibition of different HIV RTs, poly C-[dG]12-18 template; assay type: biochemical; details: poly C-[dG]12-18, [^3 H]dGTP; approximate
T2 construct: HIV-1 RT (wild type)

[1] = molecular target: T3, HIV-1181c RT (Nevirapine-resistant mutant) (Human immunodeficiency virus type 1 group M subtype B, UniProt P04585, Y768C); assay: as above; assay type: biochemical, HIV-1; details: poly C-[dG]12-18, [^3 H]dGTP; approximate
T3 construct: HIV-1181c RT (Nevirapine-resistant mutant)

HIV-2 (wild type) = molecular target: T4, HIV-2 (wild type) (Human immunodeficiency virus type 2 subtype A, UniProt P04584); assay: as above; assay type: biochemical; details: poly C-[dG]12-18, [^3 H]dGTP; approximate
T4 construct: with the RT from four different strains of the human virus: HIV-1 RT (wild type), HIV-2 (wild type)

[2] = molecular target: HIV-141,215 RT (AZT-resistant mutant, Thr 215→Tyr, Met 41→Leu) (Human immunodeficiency virus type 1 group M subtype B, UniProt P04585, M628L/T802Y); assay: as above; assay type: biochemical, HIV-1; details: poly C-[dG]12-18, [^3 H]dGTP; approximate

T4 sequence (P04584 613-1171 limits assumed): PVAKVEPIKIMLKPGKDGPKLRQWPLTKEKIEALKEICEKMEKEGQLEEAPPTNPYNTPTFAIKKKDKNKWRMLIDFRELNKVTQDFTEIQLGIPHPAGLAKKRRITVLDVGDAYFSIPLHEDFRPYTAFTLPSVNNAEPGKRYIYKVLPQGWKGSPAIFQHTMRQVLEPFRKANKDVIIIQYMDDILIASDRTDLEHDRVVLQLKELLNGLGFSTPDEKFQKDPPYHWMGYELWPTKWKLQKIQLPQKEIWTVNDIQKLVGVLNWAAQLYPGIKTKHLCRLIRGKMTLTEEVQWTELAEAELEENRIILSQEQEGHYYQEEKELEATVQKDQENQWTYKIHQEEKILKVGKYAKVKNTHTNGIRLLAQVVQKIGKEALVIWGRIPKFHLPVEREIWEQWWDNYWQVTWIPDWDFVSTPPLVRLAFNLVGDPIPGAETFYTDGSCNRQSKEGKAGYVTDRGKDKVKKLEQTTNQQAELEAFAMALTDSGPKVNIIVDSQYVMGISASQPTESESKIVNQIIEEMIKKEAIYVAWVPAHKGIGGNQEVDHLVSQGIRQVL
T4 sequence (P04584 613-1052 partner limits assumed): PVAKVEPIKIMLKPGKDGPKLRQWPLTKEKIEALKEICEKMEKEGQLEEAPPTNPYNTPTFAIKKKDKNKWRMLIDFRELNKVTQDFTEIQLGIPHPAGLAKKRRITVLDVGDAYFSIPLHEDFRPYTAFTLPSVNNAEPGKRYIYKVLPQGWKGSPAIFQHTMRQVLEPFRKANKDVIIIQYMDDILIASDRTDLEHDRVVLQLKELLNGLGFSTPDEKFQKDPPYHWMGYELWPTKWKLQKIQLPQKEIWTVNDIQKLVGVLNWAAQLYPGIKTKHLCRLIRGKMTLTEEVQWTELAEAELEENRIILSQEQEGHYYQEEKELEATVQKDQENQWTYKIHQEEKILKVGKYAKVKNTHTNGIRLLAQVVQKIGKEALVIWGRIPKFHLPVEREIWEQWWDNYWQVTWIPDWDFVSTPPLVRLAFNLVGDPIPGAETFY

Compound: Nc1ncnc2c1ncn2[C@@H]1O[C@H](COP(=O)(O)OP(=O)(O)O)[C@@H](Oc2cc(F)c([N+](=O)[O-])cc2[N+](=O)[O-])[C@H]1O [3'-O-(5-fluoro-2,4-dinitrophenyl) ADP ether]
- molar concentration required to inhibit HIV RT (HIV RT): million-fold higher molar concentration

Compound: Nc1ncnc2c1ncn2[C@@H]1O[C@H](COP(=O)(O)OP(=O)(O)OP(=O)(O)O)[C@@H](Oc2cc(F)c([N+](=O)[O-])cc2[N+](=O)[O-])[C@H]1O [the corresponding ATP ether, 3'-O-(5-fluoro-2,4-dinitrophenyl) ATP ether]
- molar concentration required to inhibit HIV RT (HIV RT): million-fold higher molar concentration

Compound: poly(2-fluoroadenylic acid) [(fl^2 A)n]
- IC50 (murine leukemia RT): 0.04 µg/mL

Compound: polyadenylic acid (5') [Poly[A]]
- IC50 of the RT, HIV-1 (wild) (HIV-1 RT (wild type)): no inhibitory effect
- IC50 of the RT, HIV-1181C [1]: no inhibitory effect
- IC50 of the RT, HIV-2 (wild) (HIV-2 (wild type)): no inhibitory effect
- IC50 of the RT, HIV-141,215 [2]: no inhibitory effect
